# Patent publication US9840478B2 (MERCK SHARP & DOHME CORP., priority 2013, dated 2017)
# Read-outs that look alike come from different tables or passages of the source.
# Tests used:
# wildtype HIV-1 protease = target: T1, wildtype HIV-1 protease (Human immunodeficiency virus type 1 group M subtype B, UniProt P04585); assay: Assay for inhibition of microbial expressed HIV protease (Pepcleav); assay type: biochemical; conditions: wildtype HIV-1 protease expressed in E. coli; peptide substrate; mean of at least two independent experiments
# T1 construct: preincubated with the HIV-1 protease (wild type) enzyme in assay buffer; made in house; host or cells: Escherichia coli
# Description: Assay for Inhibition of Microbial Expressed HIV Protease (“Pepcleav”)
# Studies of the inhibition of the wildtype HIV-1 protease (which was expressed in Escherichia coli) were carried out with a peptide substrate [Val-Ser-Gln-Asn-(βnaphtyl)Ala-Pro-Ile-Val]. The inhibitor is first preincubated with the HIV-1 protease (wild type) enzyme in assay buffer (50 mM sodium acetate, pH 5.5, 100 mM NaCl, and 0.1% BSA) for 30 minutes at room temperature. Substrate is added to 400 micromolar in a total volume of 20 microliters containing 20 picomolar HIV-1 protease (final) and the reaction is incubated for 1 hour at 30° C. The reaction is quenched with the addition of formic acid and indinavir to 0.012% and 150 nM final concentrations, respectively. The product formation is determined after separation of product and substrate on a Zorbax Eclipse XDB-C18 column connected to an API 4000 mass spectrometer (Applied Biosystems) with multiple reaction monitoring (transitions were 644.5/428.9 and 615.4/422.2 (M1/M3) for product and indinavir respectively). The extent of inhibition of the reaction is determined from the peak area of the products. Analysis of the products, independently synthesized, provided quantitation standards and confirmation of the product composition.
# HIV-1 (H9IIIB strain) = assay: Cell-based HIV infection assay using a reporter (Cell-Based), MT4-GFP cells; conditions: 50% normal human serum, mean of at least two independent experiments, read-out: Cell-based IP
# Outline: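 MT4-GFP cells (HIV LTR-driven GFP) infected 24 h with HIV-1 H9IIIB at low MOI, then washed and plated with compounds in RPMI + 50% normal human serum, 0.4% DMSO final. Green cells counted at 24 and 48 h; R0 = 48 h/24 h ratio, inhibition normalized to DMSO and triple-drug control; IC50 from 4-parameter fit.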
# [1] = Human immunodeficiency virus 1, MT4-GFP cells infected with HIV-1 H9IIIB
# [2] = MT4-GFP cells infected with HIV-1 H9IIIB
Compound,IC50 (wildtype HIV-1 protease),IC50 (HIV-1 (H9IIIB strain); [1]),IC50 (HIV-1 (H9IIIB strain); [2])
"CS(=O)(=O)N1CCNC[C@@H]1CCc1c(F)cncc1NC(=O)[C@@H](N)C(c1ccc(F)cc1)c1ccc(F)cc1 [Example 1, 2S-Amino-3,3-di-(4-fluorophenyl)-N-(5-fluoro-4-(2-(1-methylsulfonylpiperazin-2-yl)ethyl)pyridin-3-yl)propanamide]",9.7 nM,67 nM,–
"CS(=O)(=O)N1CCNC[C@H]1CCc1c(F)cncc1NC(=O)[C@@H](N)C(c1ccc(F)cc1)c1ccc(F)cc1 [Example 2, 2S-Amino-3,3-di-(4-fluorophenyl)-N-(5-fluoro-4-(2-(1-methylsulfonylpiperazin-2-yl)ethyl)pyridin-3-yl)propanamide]",1400 nM,–,–
"COC(=O)N[C@H](C(=O)Nc1cccc(F)c1CC[C@H]1CNCCN1S(=O)(=O)c1ccccc1)C(c1cccc(F)c1)c1cccc(F)c1 [Example 3, Methyl ((S)-1-((3-fluoro-2-(2-((S)-1-(phenylsulfonyl)piperazin-2-yl)ethyl)phenyl)amino)-3,3-bis(3-fluorophenyl)-1-oxopropan-2-yl)carbamate]",0.48 nM,4 nM,–
"N[C@H](C(=O)Nc1cncc(F)c1CCC1CNCCN1S(=O)(=O)Cc1ccccc1)C(c1ccc(F)cc1)c1ccc(F)cc1 (stereo partly drawn) [Example 21, N-(4-{2-[1-(benzylsulfonyl)piperazin-2-yl]ethyl}-5-fluoropyridin-3-yl)-4-fluoro-β-(4-fluorophenyl)-L-phenylalaninamide]",3.4 nM,–,–
"N[C@H](C(=O)Nc1cncc(F)c1CC[C@H]1CNCCN1S(=O)(=O)c1ccccc1)C(c1ccc(F)cc1)c1ccc(F)cc1 [Example 22, (S)-2-amino-N-(5-fluoro-4-(2-((S)-1-(phenylsulfonyl)piperazin-2-yl)ethyl)pyridin-3-yl)-3,3-bis(4-fluorophenyl)propanamide]",0.2 nM,10 nM,–
"N[C@H](C(=O)Nc1cncc(F)c1CC[C@@H]1CNCCN1S(=O)(=O)c1ccccc1)C(c1ccc(F)cc1)c1ccc(F)cc1 [Example 23, (S)-2-amino-N-(5-fluoro-4-(2-((R)-1-(phenylsulfonyl)piperazin-2-yl)ethyl)pyridin-3-yl)-3,3-bis(4-fluorophenyl) propanamide]",10 nM,–,–
"Nc1ccc(S(=O)(=O)N2CCNC[C@@H]2CCc2c(F)cncc2NC(=O)[C@@H](N)C(c2ccc(F)cc2)c2ccc(F)cc2)cc1 [Example 24, (S)-2-amino-N-(4-(2-((S)-1-((4-aminophenyl)sulfonyl)piperazin-2-yl)ethyl)-5-fluoropyridin-3-yl)-3,3-bis(4-fluorophenyl) propanamide]",0.2 nM,–,–
"Nc1ccc(S(=O)(=O)N2CCNC[C@H]2CCc2c(F)cncc2NC(=O)[C@@H](N)C(c2ccc(F)cc2)c2ccc(F)cc2)cc1 [Example 25, (S)-2-amino-N-(4-(2-((R)-1-((4-aminophenyl)sulfonyl)piperazin-2-yl)ethyl)-5-fluoropyridin-3-yl)-3,3-bis(4-fluorophenyl) propanamide]",1.3 nM,–,–
"CS(=O)(=O)N1CCNC[C@@H]1CCc1c(F)cncc1NC(=O)[C@@H](N)[C@@H](c1ccc(F)cc1)c1cc(F)cc(F)c1 [Example 26, (2S,3S)-2-amino-3-(3,5-difluorophenyl)-N-(5-fluoro-4-(2-((S)-1-(methylsulfonyl)piperazin-2-yl)ethyl)pyridin-3-yl)-3-(4-fluorophenyl)propanamide]",3.5 nM,–,–
"N[C@H](C(=O)Nc1cccc(F)c1CC[C@H]1CNCCN1S(=O)(=O)c1ccccc1)C(c1cccc(F)c1)c1cccc(F)c1 [Example 40, 3-fluoro-β-(3-fluorophenyl)-N-(3-fluoro-2-{2-[(2S)-1-(phenylsulfonyl)piperazin-2-yl]ethyl}phenyl)-L-phenylalaninamide]",0.03 nM,4.8 nM,–
"O=C(CC1(c2ccccc2)CCCNC1)Nc1cncc(F)c1CC[C@H]1CNCCN1S(=O)(=O)C1CC1 (stereo partly drawn) [Example 63, N-(4-{2-[(2S)-1-(cyclopropylsulfonyl)piperazin-2-yl]ethyl}-5-fluoropyridin-3-yl)-2-(3-phenylpiperidin-3-yl)acetamide]",1300 nM,–,–
"CC(C)[C@H](c1ccc(F)cc1)[C@H](N)C(=O)Nc1cncc(F)c1CC[C@H]1CNCCN1S(=O)(=O)C1CC1 [Example 64, (βR)-N-(4-{2-[(2S)-1-(cyclopropylsulfonyl)piperazin-2-yl]ethyl}-5-fluoropyridin-3-yl)-4-fluoro-β-(1-methylethyl)-L-phenylalaninamide]",70 nM,95 nM,–
"C[C@H]1CNC[C@H](CCc2c(F)cccc2NC(=O)[C@@H](N)[C@@H](c2ccc(F)cc2)c2cc(F)cc(F)c2)N1S(C)(=O)=O [Example 96, (βS)-β-(3,5-difluorophenyl)-4-fluoro-N-(3-fluoro-2-{2-[(2S,6S)-6-methyl-1-(methylsulfonyl)piperazin-2-yl]ethyl}phenyl)-L-phenylalaninamide]",6.1 nM,–,24 nM
"O=C(C[C@@H](c1ccc(F)cc1)c1cc(F)cc(F)c1)Nc1cncc(F)c1CC[C@H]1CNCCN1S(=O)(=O)C1CC1 [Example 303, (3S)-N-(4-{2-[(2S)-1-(cyclopropylsulfonyl)piperazin-2-yl]ethyl}-5-fluoropyridin-3-yl)-3-(3,5-difluorophenyl)-3-(4-fluorophenyl)propanamide]",5 nM,14 nM,–
"O=C(C[C@@H](c1ccc(F)cc1)c1cc(F)cc(F)c1)Nc1cncc(F)c1CC[C@H]1CNCCN1C(=O)Nc1ccccc1 [Example 342, (2S)-2-[2-(3-{[(3S)-3-(3,5-difluorophenyl)-3-(4-fluorophenyl)propanoyl]amino}-5-fluoropyridin-4-yl)ethyl]-N-phenylpiperazine-1-carboxamide]",250 nM,–,–
"C[C@@H]1C[C@H]([C@H](c2ccc(F)cc2)[C@H](N)C(=O)Nc2cccc(F)c2CC[C@H]2CNC[C@@H](C)N2S(=O)(=O)c2ccc(F)cc2)C[C@H](C)O1 [Example 371, (2S,3R)-2-amino-3-((2R,4r,6S)-2,6-dimethyltetrahydro-2H-pyran-4-yl)-N-(3-fluoro-2-(2-((2S,6S)-1-((4-fluorophenyl)sulfonyl)-6-methylpiperazin-2-yl)ethyl)phenyl)-3-(4-fluorophenyl)propanamide]",–,9.6 nM,–
"N[C@H](C(=O)Nc1cccc(F)c1CC[C@H]1CNCCN1S(=O)(=O)c1cc2ccccc2o1)[C@@H](c1ccc(F)cc1)c1cc(F)cc(F)c1 [Example 372, (2S,3S)-2-amino-N-(2-(2-((S)-1-(benzofuran-2-ylsulfonyl)piperazin-2-yl)ethyl)-3-fluorophenyl)-3-(3,5-difluorophenyl)-3-(4-fluorophenyl)propanamide]",–,14 nM,–
"Cc1ccc(S(=O)(=O)N2CCNC[C@@H]2CCc2c(F)cccc2NC(=O)[C@@H](N)[C@@H](c2ccc(F)cc2)c2cc(F)cc(F)c2)o1 [Example 373, (2S,3S)-2-amino-3-(3,5-difluorophenyl)-N-(3-fluoro-2-(2-((S)-1-((5-methylfuran-2-yl)sulfonyl)piperazin-2-yl)ethyl)phenyl)-3-(4-fluorophenyl)propanamide]",–,4.2 nM,–
"methyl ((S)-1-((2R,4r,6S)-4- (4-chlorophenyl)-2,6- dimethyltetrahydro-2H- pyran-4-yl)-2-((3-fluoro-2-(2- ((2S,6S)-6-methyl-1- (phenylsulfonyl)piperazin-2- yl)ethyl)phenyl)amino)-2- oxoethyl)carbamate [Example 299]",–,–,16 nM
